From patent US5504097A, “N-hydroxyureas as 5-lipoxygenase inhibitors and inhibitors of oxidative modification of low density lipoprotein” (American Home Products Corporation, priority 1995, dated 1996) come the findings set out here.

One may read the inhibition as the share of the control response that was lost under treatment.

In one test the target is T1, 5-Lipoxygenase (Homo sapiens, UniProt P09917).
T1 construct: from tissue; host or cells: whole blood of male human donors (endogenous enzyme of the leukocytes)
T1 sequence (P09917 1-674): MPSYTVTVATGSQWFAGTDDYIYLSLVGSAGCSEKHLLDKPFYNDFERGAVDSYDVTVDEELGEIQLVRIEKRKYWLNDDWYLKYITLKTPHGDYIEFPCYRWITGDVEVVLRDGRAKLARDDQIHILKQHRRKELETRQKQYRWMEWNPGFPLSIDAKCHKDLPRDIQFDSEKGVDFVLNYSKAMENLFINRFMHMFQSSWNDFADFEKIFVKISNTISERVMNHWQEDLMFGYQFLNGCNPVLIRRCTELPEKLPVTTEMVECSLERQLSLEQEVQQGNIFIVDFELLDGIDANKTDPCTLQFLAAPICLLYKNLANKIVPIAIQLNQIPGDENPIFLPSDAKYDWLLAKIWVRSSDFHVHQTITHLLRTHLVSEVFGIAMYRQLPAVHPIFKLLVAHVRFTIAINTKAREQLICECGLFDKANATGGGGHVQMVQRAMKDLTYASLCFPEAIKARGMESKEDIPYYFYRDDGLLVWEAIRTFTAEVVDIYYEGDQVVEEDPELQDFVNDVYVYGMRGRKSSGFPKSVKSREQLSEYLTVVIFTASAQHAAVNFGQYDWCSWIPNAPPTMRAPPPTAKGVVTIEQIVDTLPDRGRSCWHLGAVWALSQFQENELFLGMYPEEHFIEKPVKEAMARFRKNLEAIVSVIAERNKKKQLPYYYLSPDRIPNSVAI
The test is described as follows: Inhibition of 5-Lipoxygenase in Human Whole Blood (LTB4, calcium ionophore A23187). It is filed as cell-based. Conditions: 1 μM. How it is done:
1. Inhibition of 5-Lipoxygenase in Human Whole Blood
Blood is obtained in 50-100 ml quantities from male donors. White blood cell counts and differentials are made. Two ml of blood are placed in a 15 ml polypropylene test tube. Test compounds are solubilized in dimethylsulfoxide and diluted in 1:10 in 10% bovine serum albumin in phosphate buffered saline, pH 7.4 resulting in a final dimethylsulfoxide concentration of 0.1% in the blood. Then, solutions of test compounds are added to the blood in a shaking water bath at 37° C. for 10 minutes prior to the addition of 30 μM calcium ionophore (A23187, Sigma). After ionophore administration, whole blood samples are mixed and incubated for 20 minutes at 37° C. in a shaking water bath. Incubation is terminated by placing samples in an ice bath and immediately adding ethylene glycol-bis-(β-aminoethyl ether)-N, N,N',N'-tetraacetic acid (10 mM). Samples are mixed and centrifuged at 1200× g for 15 minutes at 4° C. Preparation of samples for evaluation by RIA or ELISA is carried out by the following protocol. Plasma is removed from sample tubes, placed in 15 ml polypropylene test tubes containing 8 ml methanol, and then vortexed to precipitate protein. Samples are stored at -70° C. overnight. The next day, samples are centrifuged at 200× g for 15 minutes at 4° C. to pellet the precipitate. Samples are dried in a Savant SpeedVac Concentrator, Model SVC 200H, reconstituted to original volume with ice cold RIA or ELISA buffer, and stored at -70° C. until assayed. The assay for eicosanoids (LTB4, T×B2, and PGE2) is performed as described by the manufacturer of the ^3 H!-RIA kit or ELISA kit (LTB4 -Amersham, T×B2 and PGE2 -Caymen Chemical).
The total eicosanoid level in 2 ml of blood is calculated and reported as ng/10^6 neutrophils. Significance is determined by a one-way analysis of variance with least significant difference (LSD) comparisons to control (p≤0.05) and IC50 's (μM) are determined by regression analysis (Finney, 1978). Drug effects are expressed as percent change from control values.

The next test deals with Lipoxygenase. Kind of test: Ex-Vivo Measurement of Lipoxygenase Inhibition in Orally Dosed Rats (LTB4 in A23187-stimulated blood). As to conditions: p.o. Set-up: species or system Male Sprague Dawley rats. How it is done:
2. Ex-Vivo Measurement of Lipoxygenase Inhibition in Orally Dosed Rats
After an interval of 3 or 6 hours, the rats were anesthetized with metofane (n=4/group) and blood collected in heparinized tubes. White blood cell counts and differentials were made. One ml of blood from each animal was placed in a 5 ml plastic tube in a shaker bath at 37° C. A23187 at a final concentration of 10 μM was added to the blood and the blood vortexed and incubated for 15 min at 37° C. with gentle shaking. Incubation was terminated by vortexing sample and centrifuging immediately at 1200× G for 15 min at 4° C. The plasma was transferred to 15 ml plastic tubes each containing 8 ml of methanol to precipitate protein followed by vortexing. The samples were stored at -70° C. overnight and the next day the samples were centrifuged at 800× G for 15 min to pellet the precipitate. The samples were dried in a Savant SpeedVac Concentrator Model SVC 200H and reconstituted to the original volume with cold RIA or ELISA buffer. The reconstituted samples were stored at -70° C. until assayed. The assay for LTB4 was performed according to the directions of the ^3 H!RIA kit or ELISA kit (Seragen). The total metabolite level in 1 ml of blood is calculated and reported as ng/10^6 neutrophils. Significance is determined by a one-way analysis of variance with LSD comparisons to control (p≤0.05).

The mark [1] stands for this setting: 5 mg/kg, pretreatment period 6 hr.

As for `Cc1oc(-c2ccccc2)nc1COc1ccc(CN(O)C(N)=O)cc1` [Example 1, 1-Hydroxy-1-4-(5-methyl-2-phenyl-oxazol-4-ylmethoxy)-benzyl!-urea], the inhibition at 1 µM at 5-Lipoxygenase amounted to 50%. The “% Inhibition of LTB4” value was 84% with Lipoxygenase (10 mg/kg, pretreatment period 3 hr) and 75% in the test on Lipoxygenase (10 mg/kg, pretreatment period 6 hr).
For `Cc1oc(-c2ccc(C(F)(F)F)cc2)nc1COc1ccc(CN(O)C(N)=O)cc1` [Example 6, 1-Hydroxy-1-4-5-methyl-2-(4-trifluoromethyl-phenyl)-oxazol-4-ylmethoxy!-benzyl!-urea], the inhibition at 1 µM at 5-Lipoxygenase came to 34%. Moreover, the “% Inhibition of LTB4” value with Lipoxygenase (setting [1]) is 70%.
The matching figures for `NC(=O)N(O)Cc1ccc(OCc2coc(-c3ccccc3)n2)cc1` [Example 9, 1-Hydroxy-1-4-(2-phenyl-oxazol-4-ylmethoxy)-benzyl!-urea]: 58% and 60%.
The matching figures for `NC(=O)N(O)Cc1ccc(OCc2csc(-c3ccccc3)n2)cc1` [Example 10, 1-Hydroxy-1-4-(2-phenyl-thiazol-4-ylmethoxy)-benzyl!-urea]: 44% and 67%.
